Experimental data as given in PMC10327491 (Nature microbiology, 2022).

Molecular target: T1, BtSULT (Bacteroides thetaiotaomicron, UniProt Q8AAP8)
T1 sequence (Q8AAP8 1-368): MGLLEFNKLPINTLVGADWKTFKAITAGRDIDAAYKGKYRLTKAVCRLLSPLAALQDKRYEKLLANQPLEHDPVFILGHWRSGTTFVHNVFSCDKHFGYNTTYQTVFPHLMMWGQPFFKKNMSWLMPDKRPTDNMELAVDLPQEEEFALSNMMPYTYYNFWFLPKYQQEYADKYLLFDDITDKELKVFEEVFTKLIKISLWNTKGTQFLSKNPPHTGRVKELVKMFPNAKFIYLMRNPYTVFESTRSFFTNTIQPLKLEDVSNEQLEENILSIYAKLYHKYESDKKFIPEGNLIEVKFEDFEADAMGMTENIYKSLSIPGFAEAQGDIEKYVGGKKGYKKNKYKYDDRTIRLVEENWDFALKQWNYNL
Experiment: UPLC-MS of cholesterol sulfate formation
Assay type: biochemical
Settings: 100 uM PAPS, 50 uM cholesterol acceptor, pH 7, 37 °C; sulfonate donor

Q: Which “UPLC-MS of cholesterol sulfate formation” value does the source give for `Nc1ncnc2c1ncn2[C@@H]1O[C@H](COP(=O)(O)OS(=O)(=O)O)[C@@H](OP(=O)(O)O)[C@H]1O` [adenosine 3'-phosphate-5'-phosphosulfate] here?
A: BtSULT encodes a sulfotransferase that utilizes PAPS to sulfonate Ch
